# Assay results as given in patent US9403832B2, “Pyrazolo[1,5-a]pyrimidine-based compounds, compositions comprising them, and methods of their use” (Lexicon Pharmaceuticals, Inc., priority 2012, dated 2016).
# Biological target: T1, AAK1 (Homo sapiens, UniProt Q2M2I8)
# T1 construct: NP_055726.2
# Test: P81 filter plate assay
# Assay type: biochemical
# Conditions: full-length human AAK1, Mu2 substrate, 33P-ATP
# Method: Compounds were serially diluted into a Labcyte LDV plate (Labcyte, cat#LP-0200) using a Mutiprobe (PerkinElmer) and Biomek FX (Beckman Coulter) so that the highest compound concentration was at 96 μM. Compounds were then pinged (75 nL per well) into a Greiner 384-well reaction plate (Greiner, #781076) using an ECHO 550 Liquid Handler (Labcyte). A total of 12 μl reaction buffer (IMAP buffer containing Tween and DTT, from Molecular Devices) was then added to each well of columns 1 and 13 for the negative controls and 12 μl of 2× AAK1 (0.2 nM full-length human protein, NCBI accession no. NP_055726.2) was added to the remaining wells. Enzyme was then pre-incubated with compound for 10 minutes at RT. Reactions were initiated upon Minitrak (PerkinElmer) addition of 12 μl substrate mix containing 2× Mu2 (0.2 μM, full length human protein), 2× cold ATP (2 μM), and 1.3 μCi of hot ^33P-ATP. […] proceeded for one hour at RT. Meanwhile, Millipore 384-well P81 filter plates (Millipore, catalog #MZPHNOW10) were placed on a plate washer (Zoom ZW, from Titertek) and pre-wet with 50 μl 1% phosphoric acid. Kinase reactions were then stopped upon addition of 24 μl of 2% phosphoric acid to each well and the Minitrak was then used to transfer 40 μl from each well into the pre-wet Millipore 384-well P81 filter plates. Reaction mixtures were incubated for 10 minutes at RT in the P81 plates, followed by washing five times with 100 μl/well of 1% phosphoric acid using the Zoom filter washer. The bottom of each filter plate was sealed followed by addition of 20 μl Microscint 40 to each well, sealing the top of the plates with Flashplate cover, and then waiting one hour until reading on the TopCount (PerkinElmer).
# T1 sequence (Q2M2I8 1-863 isoform Q2M2I8-2): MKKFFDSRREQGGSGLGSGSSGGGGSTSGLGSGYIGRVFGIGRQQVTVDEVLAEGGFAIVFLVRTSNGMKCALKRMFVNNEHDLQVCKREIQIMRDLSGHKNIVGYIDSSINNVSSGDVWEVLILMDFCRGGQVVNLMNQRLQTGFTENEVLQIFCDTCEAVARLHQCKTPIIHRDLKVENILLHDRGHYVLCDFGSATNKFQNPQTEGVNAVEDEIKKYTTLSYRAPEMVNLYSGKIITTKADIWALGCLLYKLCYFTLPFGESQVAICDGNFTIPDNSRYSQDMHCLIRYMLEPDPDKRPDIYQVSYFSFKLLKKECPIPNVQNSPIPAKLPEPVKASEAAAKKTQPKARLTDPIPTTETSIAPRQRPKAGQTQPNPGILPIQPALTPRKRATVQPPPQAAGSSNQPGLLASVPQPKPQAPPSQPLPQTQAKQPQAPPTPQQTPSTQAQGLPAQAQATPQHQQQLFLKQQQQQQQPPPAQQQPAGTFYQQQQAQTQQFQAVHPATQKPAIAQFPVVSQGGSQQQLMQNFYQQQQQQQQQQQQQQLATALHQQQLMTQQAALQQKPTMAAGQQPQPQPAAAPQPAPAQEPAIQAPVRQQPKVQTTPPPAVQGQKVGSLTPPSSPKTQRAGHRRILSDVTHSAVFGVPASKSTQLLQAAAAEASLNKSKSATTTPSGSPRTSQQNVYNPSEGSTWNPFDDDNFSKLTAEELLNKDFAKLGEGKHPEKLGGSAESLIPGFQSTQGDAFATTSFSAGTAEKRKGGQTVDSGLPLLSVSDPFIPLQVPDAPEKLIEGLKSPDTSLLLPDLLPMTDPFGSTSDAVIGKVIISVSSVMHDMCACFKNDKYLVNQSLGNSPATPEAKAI
row,Structure (SMILES),IC50 [nM]
1,"COc1cc(-c2cnn3ccc(N4CCN(C(=O)OC(C)C)CC4)nc23)ccn1 [isopropyl 4-(3-(2-methoxypyridin-4-yl)pyrazolo[1,5-a]pyrimidin-5-yl)piperazine-1-carboxylate]",≤ 100
2,"COc1ccccc1-c1cnn2ccc(N3CCN(C(=O)OC(C)C)CC3)nc12 [isopropyl 4-(3-(2-methoxyphenyl)pyrazolo[1,5-a]pyrimidin-5-yl)piperazine-1-carboxylate]",≤ 10
3,"CC(C)OC(=O)N1CCN(c2ccn3ncc(-c4cccc5[nH]cnc45)c3n2)CC1 [isopropyl 4-(3-(1H-benzo[d]imidazol-4-yl)pyrazolo[1,5-a]pyrimidin-5-yl)piperazine-1-carboxylate]",≤ 100
4,"COc1ncc(F)cc1-c1cnn2ccc(N3CCN(CCC(F)(F)F)CC3)nc12 [3-(5-fluoro-2-methoxypyridin-3-yl)-5-(4-(3,3,3-trifluoropropyl)piperazin-1-yl)pyrazolo[1,5-a]pyrimidine]",≤ 1000
5,"COc1ncccc1-c1cnn2ccc(N3CCN(c4noc(C(C)C)n4)CC3)nc12 [5-isopropyl-3-(4-(3-(2-methoxypyridin-3-yl)pyrazolo[1,5-a]pyrimidin-5-yl)piperazin-1-yl)-1,2,4-oxadiazole]",≤ 100
6,"COc1nc(C)ccc1-c1cnn2ccc(NCCOC(C)(C)C)nc12 [N-(2-(tert-butoxy)ethyl)-3-(2-methoxy-6-methylpyridin-3-yl)pyrazolo[1,5-a]pyrimidin-5-amine]",≤ 100
7,"CCOc1ncccc1-c1cnn2ccc(N3CCN(C(=O)OC(C)C)CC3)nc12 [isopropyl 4-(3-(2-ethoxypyridin-3-yl)pyrazolo[1,5-a]pyrimidin-5-yl)piperazine-1-carboxylate]",≤ 10
8,"[2H]C1([2H])N(C(=O)OC(C)(C)C)C([2H])([2H])C([2H])([2H])N(c2ccn3ncc(Br)c3n2)C1([2H])[2H] [tert-butyl 4-(3-bromopyrazolo[1,5-a]pyrimidin-5-yl)-d8-piperazine-1-carboxylate]",≤ 100
9,"CC(C)(C)OC(=O)N1CCC[C@H]1CNc1ccn2ncc(C(F)(F)F)c2n1 [(S)-tert-butyl 2-(((3-(trifluoromethyl)pyrazolo[1,5-a]pyrimidin-5-yl)amino)methyl)pyrrolidine-1-carboxylate]",≤ 10
10,"COc1nc(C)ccc1-c1cnn2ccc(N3CCN(C(=O)OC(C)C)CC3)nc12 [isopropyl 4-(3-(2-methoxy-6-methylpyridin-3-yl)pyrazolo[1,5-a]pyrimidin-5-yl)piperazine-1-carboxylate]",≤ 10
11,"COCCOc1ccccc1-c1cnn2ccc(N3CCN(C(=O)OC(C)C)CC3)nc12 [isopropyl 4-(3-(2-(2-methoxyethoxy)phenyl)pyrazolo[1,5-a]pyrimidin-5-yl)piperazine-1-carboxylate]",≤ 100
12,"COc1ncccc1-c1cnn2ccc(N3CCN(C(=O)[C@@H]4COCCN4)CC3)nc12 [(S)-(4-(3-(2-methoxypyridin-3-yl)pyrazolo[1,5-a]pyrimidin-5-yl)piperazin-1-yl)(morpholin-3-yl)methanone]",≤ 10
13,"CC(C)OC(=O)N1CCN(c2ccn3ncc(-c4ccc(F)nc4)c3n2)CC1 [isopropyl 4-(3-(6-fluoropyridin-3-yl)pyrazolo[1,5-a]pyrimidin-5-yl)piperazine-1-carboxylate]",≤ 100
14,"COc1ncccc1-c1cnn2ccc(N3C[C@H]4C[C@@H](C3)N4C(=O)OC(C)(C)C)nc12 [(1R,5S)-tert-butyl 3-(3-(2-methoxypyridin-3-yl)pyrazolo[1,5-a]pyrimidin-5-yl)-3,6-diazabicyclo[3.1.1]heptane-6-carboxylate]",≤ 100
15,"COc1ncc(C)cc1-c1cnn2ccc(N(C)CCN(C)C(=O)OC(C)C)nc12 [isopropyl (2-((3-(2-methoxy-5-methylpyridin-3-yl)pyrazolo[1,5-a]pyrimidin-5-yl)(methyl)amino)ethyl)(methyl)carbamate]",≤ 100
16,"CC(C)OC(=O)N1CCN(c2ccn3ncc(-c4cccnc4OCCN(C)C)c3n2)CC1 [isopropyl 4-(3-(2-(2-(dimethylamino)ethoxy)pyridin-3-yl)pyrazolo[1,5-a]pyrimidin-5-yl)piperazine-1-carboxylate]",≤ 100
17,"COc1ncccc1-c1cnn2ccc(OCCN(C)C(=O)OC(C)(C)C)nc12 [tert-butyl (2-((3-(2-methoxypyridin-3-yl)pyrazolo[1,5-a]pyrimidin-5-yl)oxy)ethyl)(methyl)carbamate]",≤ 10
18,"COc1ncccc1-c1cnn2ccc(N3CCN(CCC(F)(F)F)CC3)nc12 [3-(2-methoxypyridin-3-yl)-5-(4-(3,3,3-trifluoropropyl)piperazin-1-yl)pyrazolo[1,5-a]pyrimidine]",≤ 1000

row,Structure (SMILES),IC50 [nM]
1,"CCc1ccccc1-c1cnn2ccc(NC[C@@H]3CCCN3C(=O)OC(C)(C)C)nc12 [(S)-tert-butyl 2-(((3-(2-ethylphenyl)pyrazolo[1,5-a]pyrimidin-5-yl)amino)methyl)pyrrolidine-1-carboxylate]",≤ 10
2,"CC(C)(C)OCCCNc1ccn2ncc(Br)c2n1 [3-bromo-N-(3-(tert-butoxy)propyl)pyrazolo[1,5-a]pyrimidin-5-amine]",≤ 1000
3,"COc1ncccc1-c1cnn2ccc(NCCNC(=O)OC(C)C)nc12 [isopropyl (2-((3-(2-methoxypyridin-3-yl)pyrazolo[1,5-a]pyrimidin-5-yl)amino)ethyl)carbamate]",≤ 100
4,"CC(C)OC(=O)N1CCN(c2ccn3ncc(C(F)(F)F)c3n2)CC1 [isopropyl 4-(3-(trifluoromethyl)pyrazolo[1,5-a]pyrimidin-5-yl)piperazine-1-carboxylate]",≤ 1000
5,"CC(C)C[C@H](N)C(=O)N1CCN(c2ccn3ncc(Br)c3n2)CC1 [(S)-2-amino-1-(4-(3-bromopyrazolo[1,5-a]pyrimidin-5-yl)piperazin-1-yl)-4-methylpentan-1-one]",≤ 100
6,"CCCC(=O)Nc1ccn2ncc(-c3cccnc3OC)c2n1 [N-(3-(2-methoxypyridin-3-yl)pyrazolo[1,5-a]pyrimidin-5-yl)butyramide]",≤ 100
7,"CC(C)OC(=O)N1CCN(c2ccn3ncc(-c4cccn(C)c4=O)c3n2)CC1 [isopropyl 4-(3-(1-methyl-2-oxo-1,2-dihydropyridin-3-yl)pyrazolo[1,5-a]pyrimidin-5-yl)piperazine-1-carboxylate]",≤ 10
8,"COc1nc(C)ccc1-c1cnn2ccc(N3CCN(CC(F)(F)F)CC3)nc12 [3-(2-methoxy-6-methylpyridin-3-yl)-5-(4-(2,2,2-trifluoroethyl)piperazin-1-yl)pyrazolo[1,5-a]pyrimidine]",≤ 100
9,"COc1ncccc1-c1cnn2ccc(N3CCN(CC(F)(F)F)CC3)nc12 [3-(2-methoxypyridin-3-yl)-5-(4-(2,2,2-trifluoroethyl)piperazin-1-yl)pyrazolo[1,5-a]pyrimidine]",≤ 100
10,"COc1ncccc1-c1cnn2ccc(N3C[C@H]4C[C@@H](C3)N4C(=O)OC(C)C)nc12 [(1R,5S)-isopropyl 3-(3-(2-methoxypyridin-3-yl)pyrazolo[1,5-a]pyrimidin-5-yl)-3,6-diazabicyclo[3.1.1]heptane-6-carboxylate]",≤ 100
11,"COCc1ccccc1-c1cnn2ccc(N3CCN(C(=O)OC(C)C)CC3)nc12 [isopropyl 4-(3-(2-(methoxymethyl)phenyl)pyrazolo[1,5-a]pyrimidin-5-yl)piperazine-1-carboxylate]",≤ 1000
12,"COc1ncccc1-c1cnn2ccc(OCCN(C)C(=O)OC(C)C)nc12 [isopropyl (2-((3-(2-methoxypyridin-3-yl)pyrazolo[1,5-a]pyrimidin-5-yl)oxy)ethyl)(methyl)carbamate]",≤ 100
13,"COC(=O)c1ccc(-c2cnn3ccc(N4CCN(C(=O)OC(C)C)CC4)nc23)cc1 [isopropyl 4-(3-(4-(methoxycarbonyl)phenyl)pyrazolo[1,5-a]pyrimidin-5-yl)piperazine-1-carboxylate]",≤ 100
14,"COc1ncc(F)cc1-c1cnn2ccc(N3CCN(C(=O)OC(C)C)CC3)nc12 [isopropyl 4-(3-(5-fluoro-2-methoxypyridin-3-yl)pyrazolo[1,5-a]pyrimidin-5-yl)piperazine-1-carboxylate]",≤ 10
15,"COc1ncncc1-c1cnn2ccc(N3CCN(C(=O)OC(C)C)CC3)nc12 [isopropyl 4-(3-(4-methoxypyrimidin-5-yl)pyrazolo[1,5-a]pyrimidin-5-yl)piperazine-1-carboxylate]",≤ 100
16,"COc1ncc(F)cc1-c1cnn2ccc(N(C)CCCN(C)C(=O)OC(C)C)nc12 [isopropyl (3-((3-(5-fluoro-2-methoxypyridin-3-yl)pyrazolo[1,5-a]pyrimidin-5-yl)(methyl)amino)propyl)(methyl)carbamate]",≤ 10
17,"COc1ncccc1-c1cnn2ccc(N(C)CCN(C)C(=O)[C@@H](N)CC(C)C)nc12 [(S)-2-amino-N-(2-((3-(2-methoxypyridin-3-yl)pyrazolo[1,5-a]pyrimidin-5-yl)(methyl)amino)ethyl)-N,4-dimethylpentanamide]",≤ 10
18,"COc1ncc(F)cc1-c1cnn2ccc(N(C)CCN(C)C(=O)OC(C)C)nc12 [isopropyl (2-((3-(5-fluoro-2-methoxypyridin-3-yl)pyrazolo[1,5-a]pyrimidin-5-yl)(methyl)amino)ethyl)(methyl)carbamate]",≤ 10
